The record followed here is patent US11730815B2, “Stable liquid pharmaceutical compositions comprising bendamustine” (GOOD HEALTH, LLC, priority 2018, dated 2023).

≈ marks a conversion by molar mass, not a printed value. Entries after “also recorded” stand apart in the source; their conditions may differ.

Common to all, as to type: physicochemical
Series [1] in a line: Solubility of bendamustine in non-aqueous solvents. To be noted: sonication; for solubility: organic solvent or mixture, thermodynamic from solid. The method, then: Bendamustine HCl was added in 5-10 mg increments to vials containing PG, PEG 200, PEG 300, PEG 400, and PEG 600, and the mixtures were sonicated. Sonication was stopped when the solution remained turbid after 8-10 minutes of sonication.
Note: The solubility might be slightly overestimated because of the generation of heat during long sonication.

Series [2] is described as follows: Solubility of bendamustine in non-aqueous solvents in the presence of cyclodextrin. Particulars: for solubility: organic solvent or mixture, thermodynamic from solid. As to the method:
Bendamustine HCl was added to vials containing 50 mg of HPβCD per mL and PG, PEG 200, PEG 300, PEG 400, or PEG 600, and the mixtures were sonicated for about 8-10 minutes after each addition of bendamustine. The addition of bendamustine was stopped when the solutions remained turbid even after sonication for about 8-10 minutes.

Series [3] is described as follows: Solubility of HPβCD in non-aqueous solvents. Particulars: sonicated 10 minutes. The method, then:
PG, PEG 200, PEG 300, PEG 400, and PEG 600 were added to vials containing hydroxy propyl-β-cyclodextrin (HPβCD) (50 mg) and sonicated for 10 minutes. […]

Take `Cn1c(CCCC(=O)O)nc2cc(N(CCCl)CCCl)ccc21` [bendamustine, 4-(5-(bis(2-chloroethyl)amino)-1-methyl-1H-benzo[d]imidazol-2-yl)butanoic acid]: the solubility in series [1] (PEG 200 (non-aqueous solvent), in PEG 200) is greater than 50 mg/mL; in series [1] (PEG 300 (non-aqueous solvent), in PEG 300) it was greater than 50 mg/mL; in series [1] (PEG 400 (non-aqueous solvent), in PEG 400) it was 25 to 30 mg/mL (≈ 69.8 to 83.7 mM); in series [1] (PEG 600 (non-aqueous solvent), in PEG 600), 8 to 10 mg/mL (≈ 22.3 to 27.9 mM); in series [1] (PG (non-aqueous solvent), in PG), greater than 50 mg/mL; in series [2] (PEG 200 with 50 mg/mL HPβCD, in PEG 200 with 50 mg HPβCD per mL), 50 mg/mL. Further, the solubility was 50 mg/mL in series [2] (PEG 300 with 50 mg/mL HPβCD, in PEG 300 with 50 mg HPβCD per mL); 40 to 45 mg/mL in series [2] (PEG 400 with 50 mg/mL HPβCD, in PEG 400 with 50 mg HPβCD per mL); 25 to 30 mg/mL in series [2] (PEG 600 with 50 mg/mL HPβCD, in PEG 600 with 50 mg HPβCD per mL); 50 mg/mL in series [2] (PG with 50 mg/mL HPβCD, in PG with 50 mg HPβCD per mL). For the same molecule, the Solubility of bendamustine result in series [1] (in PEG 200) is reported as “adequate”; in series [1] (in PEG 300) it was “adequate”; in series [1] (in PEG 400), “insufficient”; in series [1] (in PEG 600) it was “insufficient”; in series [1] (in PG), “adequate”. The “Appearance of resulting liquid mixture” value in series [2] (in PEG 200 with 50 mg HPβCD per mL), in series [2] (in PEG 300 with 50 mg HPβCD per mL), in series [2] (in PEG 400 with 50 mg HPβCD per mL), in series [2] (in PEG 600 with 50 mg HPβCD per mL) and in series [2] (in PG with 50 mg HPβCD per mL) was “Clear solution” each time.
For hydroxy propyl-β-cyclodextrin [HPβCD], the “Solubility of HPβCD: Physical observation” value in series [3] (50 mg HPβCD per mL of PEG 200) is “adequate; also recorded: Clear”; in series [3] (50 mg HPβCD per mL of PEG 300) it was “adequate; also recorded: Clear”; in series [3] (50 mg HPβCD per mL of PEG 400), “insoluble; also recorded: Turbid”; in series [3] (50 mg HPβCD per mL of PEG 600), “insoluble; also recorded: Turbid”; in series [3] (50 mg HPβCD per mL of PG), “adequate; also recorded: Clear”.

A word on the solubility: it is the dissolved amount per volume that the medium holds.
